Data set [1] has as its system liver cells. The data set can be described thus: In vivo LNP delivery of DNA encoding firefly luciferase, bioluminescent imaging (BLI) at 48 hr. On the set-up: species or system BALB/C mice. The settings on record: for Mean Luciferase Flux (p/s): adult BALB/C mice, 0.5 mg/kg DNA encoding firefly luciferase in LNP; for Mean Luciferase Flux (p/s) / Total Flux: BLI at 48 hr; for Total Flux: Example 103, 0.5 mg/kg DNA intravenous. The method, then:
Adult BALB/C mice (n=3) were administered 0.5 mg/kg of DNA encoding firefly luciferase (Nature Technology Corp) formulated in a LNP composition listed in Table 4. One group of mice was treated with vehicle (PBS, Thermo Fisher Scientific, USA) as a negative control.
The location and extent of luciferase expression in treated and control mice were determined at 48 hr for DNA delivery by bioluminescent imaging (BLI) of anesthetized mice using an IVIS Lumina in vivo imaging system (Perkin Elmer) according to the manufacturer's instructions. Briefly, mice were anesthetized using isoflurane in oxygen, and placed supine on a heated stage. Mice were then administered D-luciferin (Perkin-Elmer #122799) IP, and BLI was performed.
The location and extent of luciferase expression in treated and control mice were determined at 48 hr for DNA by bioluminescent imaging (BLI) of anesthetized mice using an IVIS Lumina in vivo imaging system (Perkin Elmer) according to the manufacturer's instructions. Briefly, mice were anesthetized using isoflurane in oxygen, and placed supine on a heated stage. Mice were then administered D-luciferin (Perkin-Elmer #122799) IP, and BLI was performed. […]
Body weight loss (BWL) measurements were taken at 24 hrs post administration and luciferase expression was measured by whole body luminescence imaging (BLI) at 48 hours post-administration. […]
Luciferase expression was measured by whole body luminescence imaging (BLI) at 48 hours post-administration.

For data set [2], the system named is liver cells. The data set can be described thus: In vivo LNP delivery of fLuciferase mRNA, bioluminescent imaging (BLI) at 4 hr. Also noted: species or system BALB/C mice. The settings on record: for Mean Luciferase Flux: 0.5 mg/kg fLuc mRNA i.v., 4 hr; for Total Flux: 0.5 mg/kg fLuciferase mRNA intravenous. As for the experimental part:
Adult female BALB/C mice (n=3/group) were intravenously administered 0.5 mg/kg of 5′-CleanCap—fLuciferase mRNA (TriLink Biotech) formulated with the LNP compositions shown in Table 6. One group of mice was treated with vehicle (PBS, Thermo Fisher Scientific, USA) as a negative control.
The location and extent of luciferase expression in treated and control mice were determined at 4 hr for mRNA and 48 hr for DNA by bioluminescent imaging (BLI) of anesthetized mice using an IVIS Lumina in vivo imaging system (Perkin Elmer) according to the manufacturer's instructions. Briefly, mice were anesthetized using isoflurane in oxygen, and placed supine on a heated stage. Mice were then administered D-luciferin (Perkin-Elmer #122799) IP, and BLI was performed.
(§1) The location and extent of luciferase expression in treated and control mice were determined at 4 hr by bioluminescent imaging (BLI) of anesthetized mice using an IVIS Lumina in vivo imaging system (Perkin Elmer) according to the manufacturer's instructions. Briefly, mice were anesthetized using isoflurane in oxygen, and placed supine on a heated stage. Mice were then administered D-luciferin (Perkin-Elmer #122799) IP, and BLI was performed.
as §1
The location and extent of luciferase expression in treated and control mice were determined at 4 hr by bioluminescent imaging (BLI) of anesthetized mice using an IVIS Lumina in vivo imaging system (Perkin Elmer) according to the manufacturer's instructions.
Briefly, mice were anesthetized using isoflurane in oxygen, and placed supine on a heated stage. Mice were then administered D-luciferin (Perkin-Elmer #122799) IP, and BLI was performed.
as §1

The nature of data set [3]: Body weight change / body weight loss 24 hours post-administration of LNP. Format: in vivo, BALB/C mice. The settings on record: fLuc mRNA 0.5 mg/kg i.v. As for the experimental part: In addition, the body weight of mice treated with LNP compositions of the present disclosure prepared as described in Example 77 was assessed prior to intravenous administration and 24 hours post-administration and the body weights at baseline and post-treatment were compared.
In addition, the body weight of mice treated with LNP compositions of the present disclosure was assessed prior to intravenous administration and 24 hours post-administration and the body weights at baseline and post-treatment were compared.
Body weight loss (BWL) measurements were taken at 24 hrs post administration and luciferase expression was measured by whole body luminescence imaging (BLI) at 48 hours post-administration.
Blood was drawn from control and treated mice 4 hrs post-administration for cytokine analysis, body weight loss (BWL) measurements were taken at 24 hrs post administration and luciferase expression was measured by whole body luminescence imaging (BLI) at 48 hours post-administration.

The mark [4] stands for this setting: LNP with 50 % moles of COMPOUND NO. 38 or 39 (DOPC 10/Chol 38.5/PEG-DMG 1.5, Lipid:RNA 80).
The mark [5] stands for this setting: Example 104, experiment of Table 63, BLI at 4 hr.
The mark [6] stands for this setting: Example 104, experiment of Table 64, BLI at 4 hr.
Setting [7] is: Example 104, experiment of Table 65, BLI at 4 hr.

Take `CCCCCC1CCC(C(=O)OCCOC(=O)CCN(CCCN(C)CCCN(CCC(=O)OCCOC(=O)[C@H]2CC[C@H](CCCCC)CC2)CCC(=O)OCCOC(=O)[C@H]2CC[C@H](CCCCC)CC2)CCC(=O)OCCOC(=O)C2CCC(CCCCC)CC2)CC1` (stereo partly drawn) [COMPOUND NO. 3]: the “Mean Luciferase Flux (p/s)” value in data set [1] was 2.12E+08 p/s.

With `CCCCCC1CCC(C(=O)OCCOC(=O)CCN(CCCN(C)CCN(CCC(=O)OCCOC(=O)[C@H]2CC[C@H](CCCCC)CC2)CCC(=O)OCCOC(=O)[C@H]2CC[C@H](CCCCC)CC2)CCC(=O)OCCOC(=O)C2CCC(CCCCC)CC2)CC1` (stereo partly drawn) [COMPOUND NO. 4], the “Mean Luciferase Flux (p/s)” value in data set [1] is given as 1.36E+09 p/s.

With `CCCCC[C@H]1CC[C@H](C(=O)OCC(COC(=O)CCCCCN(CCCCO)CCCCCC(=O)COC(COC(=O)[C@H]2CC[C@H](CCCCC)CC2)COC(=O)[C@H]2CC[C@H](CCCCC)CC2)COC(=O)[C@H]2CC[C@H](CCCCC)CC2)CC1` [COMPOUND NO. 38], the “Mean Luciferase Flux” value in data set [2] (setting [4]) is 1.17E+11 p/s. In data set [1] (LNP with 10% DSPC), the “Total Flux” value turned out to be 8.29E+07 p/s.

As to `CCCCC[C@H]1CC[C@H](C(=O)OCC(COC(=O)CCCCCN(CCCCCC(=O)COC(COC(=O)[C@H]2CC[C@H](CCCCC)CC2)COC(=O)[C@H]2CC[C@H](CCCCC)CC2)CCCCNC(C)=O)COC(=O)[C@H]2CC[C@H](CCCCC)CC2)CC1` [COMPOUND NO. 39], the “Mean Luciferase Flux” value in data set [2] (setting [4]) was 9.49E+10 p/s. Besides, the “Total Flux” value in data set [1] (LNP with 10% DOPC) worked out at 2.03E+06 p/s.

In the case of `CCCCCC(=O)OCC1CCC(COC(=O)C(CCCN(C)CCCC(C(=O)OCC2CCC(COC(=O)CCCCC)CC2)C(=O)OCC2CCC(COC(=O)CCCCC)CC2)C(=O)OCC2CCC(COC(=O)CCCCC)CC2)CC1` (stereo not drawn) [COMPOUND NO. 41], the “Mean Luciferase Flux” value is reported as 3.79E+09 p/s in data set [2] (Table 15 experiment, LNP with 40.75 % moles of the compound (Lipid:RNA 80)) and 5.26E+09 p/s in data set [2] (Table 15 experiment, LNP with 50 % moles of the compound (Lipid:RNA 80)). Besides, the “% body weight change” value in data set [3] (LNP with 40.75 % moles of the compound) is on record as −1.8%; in data set [3] (LNP with 50 % moles of the compound) it was −2.6%.

Regarding `CCCCC[C@H]1CC[C@H](C(=O)OCC(COC(=O)CCCCCN(CCCCCC(=O)OCC(COC(=O)[C@H]2CC[C@H](CCCCC)CC2)COC(=O)[C@H]2CC[C@H](CCCCC)CC2)[C@H]2CC[C@H](O)CC2)COC(=O)[C@H]2CC[C@H](CCCCC)CC2)CC1` [COMPOUND NO. 53], the “Total Flux” value in data set [1] (LNP with 10% DOPC) stood at 4.23E+07 p/s.

As for `CCCCC[C@H]1CC[C@H](C(=O)OCC(COC(=O)CCCCCN(CCCCCC(=O)OCC(COC(=O)[C@H]2CC[C@H](CCCCC)CC2)COC(=O)[C@H]2CC[C@H](CCCCC)CC2)C[C@@H](C)O)COC(=O)[C@H]2CC[C@H](CCCCC)CC2)CC1` [COMPOUND NO. 57], the “Total Flux” value in data set [2] (setting [5]) is recorded as 9.69E+10 p/s.

On to `CCCCC[C@H]1CC[C@H](C(=O)OCC(COC(=O)CCCCCN(CCC)CCCCCC(=O)OCC(COC(=O)[C@H]2CC[C@H](CCCCC)CC2)COC(=O)[C@H]2CC[C@H](CCCCC)CC2)COC(=O)[C@H]2CC[C@H](CCCCC)CC2)CC1` [COMPOUND NO. 58], for which the “Total Flux” value in data set [2] (setting [6]) came to 4.38E+09 p/s.

Take `CCCCC[C@H]1CC[C@H](C(=O)OCC(COC(=O)CCCCCN(CCCCCC(=O)OCC(COC(=O)[C@H]2CC[C@H](CCCCC)CC2)COC(=O)[C@H]2CC[C@H](CCCCC)CC2)C[C@@H](O)CO)COC(=O)[C@H]2CC[C@H](CCCCC)CC2)CC1` [COMPOUND NO. 60]: the “Total Flux” value in data set [2] (setting [6]) is recorded as 6.51E+10 p/s.

For `CCCCC[C@H]1CC[C@H](C(=O)OCC(COC(=O)CCCCCN(CCCCCC(=O)OCC(COC(=O)[C@H]2CC[C@H](CCCCC)CC2)COC(=O)[C@H]2CC[C@H](CCCCC)CC2)C[C@H](O)CO)COC(=O)[C@H]2CC[C@H](CCCCC)CC2)CC1` [COMPOUND NO. 61], the “Total Flux” value in data set [2] (setting [6]) worked out at 1.04E+11 p/s.

Consider `CCCCC[C@H]1CC[C@H](C(=O)OCC(COC(=O)CCCCCN(CCCCCC(=O)OCC(COC(=O)[C@H]2CC[C@H](CCCCC)CC2)COC(=O)[C@H]2CC[C@H](CCCCC)CC2)C(CO)CO)COC(=O)[C@H]2CC[C@H](CCCCC)CC2)CC1` [COMPOUND NO. 62], for which the “Total Flux” value in data set [2] (setting [7]) was found to be 2.20E+11 p/s.

For `CCCCC[C@H]1CC[C@H](C(=O)OCC(COC(=O)CCCCCN(CCCCCC(=O)OCC(COC(=O)[C@H]2CC[C@H](CCCCC)CC2)COC(=O)[C@H]2CC[C@H](CCCCC)CC2)Cc2ccccc2)COC(=O)[C@H]2CC[C@H](CCCCC)CC2)CC1` [COMPOUND NO. 63], the “Total Flux” value in data set [2] (setting [6]) was found to be 3.48E+05 p/s.

On to `O=C(CCCCCN(CCO)CCCCCC(=O)OCC(COC(=O)CCCCC1CCCCC1)COC(=O)CCCCC1CCCCC1)OCC(COC(=O)CCCCC1CCCCC1)COC(=O)CCCCC1CCCCC1` [COMPOUND NO. 65], for which the “Total Flux” value in data set [2] (setting [5]) amounted to 1.30E+11 p/s.

Take `O=C(CCCCCN(CCCO)CCCCCC(=O)OCC(COC(=O)CCCCC1CCCCC1)COC(=O)CCCCC1CCCCC1)OCC(COC(=O)CCCCC1CCCCC1)COC(=O)CCCCC1CCCCC1` [COMPOUND NO. 66]: the “Total Flux” value in data set [2] (setting [5]) is reported as 3.25E+11 p/s.

For the molecule `O=C(CCCCCN(CCCCO)CCCCCC(=O)OCC(COC(=O)CCCCC1CCCCC1)COC(=O)CCCCC1CCCCC1)OCC(COC(=O)CCCCC1CCCCC1)COC(=O)CCCCC1CCCCC1` [COMPOUND NO. 67], in data set [2] (setting [7]), the “Total Flux” value is recorded as 3.79E+11 p/s.

On to `CCCCC[C@H]1CC[C@H](C(=O)OCC(COC(=O)CCCCN(CCO)CCCCC(=O)OCC(COC(=O)[C@H]2CC[C@H](CCCCC)CC2)COC(=O)[C@H]2CC[C@H](CCCCC)CC2)COC(=O)[C@H]2CC[C@H](CCCCC)CC2)CC1` [COMPOUND NO. 71], for which, in data set [2] (setting [7]), the “Total Flux” value is 1.78E+11 p/s.

With `CCCCC[C@H]1CC[C@H](C(=O)OCC(COC(=O)CCCCN(CCCO)CCCCC(=O)OCC(COC(=O)[C@H]2CC[C@H](CCCCC)CC2)COC(=O)[C@H]2CC[C@H](CCCCC)CC2)COC(=O)[C@H]2CC[C@H](CCCCC)CC2)CC1` [COMPOUND NO. 72], the “Total Flux” value in data set [2] (setting [7]) is listed as 2.40E+11 p/s.

`CCCCC[C@H]1CC[C@H](C(=O)OCC(COC(=O)CCCCN(CCCCO)CCCCC(=O)OCC(COC(=O)[C@H]2CC[C@H](CCCCC)CC2)COC(=O)[C@H]2CC[C@H](CCCCC)CC2)COC(=O)[C@H]2CC[C@H](CCCCC)CC2)CC1` [COMPOUND NO. 73]: the “Total Flux” value in data set [2] (setting [7]) is reported as 1.61E+11 p/s.

`CCCCCCCCCCCC(=O)OCC(COC(=O)CCCCCCCCCCC)COC(=O)CCCCCN(CCO)CCCCCC(=O)OCC(COC(=O)CCCCCCCCCCC)COC(=O)CCCCCCCCCCC` [compound 100, reference compound]: the RNA delivery potency result in data set [2] (0.5 mg/kg fLuciferase mRNA in LNP, BLI at 4 hr) is recorded as “RNA delivery potency increases with increasing number of cyclohexyl-substituted tails”. In addition, the “Total Flux” value was 3.24E+10 p/s in data set [2] (setting [6]) and 1.97E+07 p/s in data set [1] (LNP comprising compound 100, composition not stated). The DNA delivery potency result in data set [1] (0.5 mg/kg DNA, BLI 48 hr, compared to LNPs comprising COMPOUND NOS. 36, 37, or 38) is given as “greatly reduced”.

For the origin of these results see patent publication US20260069539A1, “LIPIDOID COMPOUNDS AND RELATED COMPOSITIONS AND USES” (Poseida Therapeutics, Inc., priority 2023, published 2026).
